pEC50: −log10 of the molar value.
Each molecule was assayed against Human ENPP1 (Homo sapiens (Human), UniProt P22413).
Human ENPP1, sequence (P22413 whole entry): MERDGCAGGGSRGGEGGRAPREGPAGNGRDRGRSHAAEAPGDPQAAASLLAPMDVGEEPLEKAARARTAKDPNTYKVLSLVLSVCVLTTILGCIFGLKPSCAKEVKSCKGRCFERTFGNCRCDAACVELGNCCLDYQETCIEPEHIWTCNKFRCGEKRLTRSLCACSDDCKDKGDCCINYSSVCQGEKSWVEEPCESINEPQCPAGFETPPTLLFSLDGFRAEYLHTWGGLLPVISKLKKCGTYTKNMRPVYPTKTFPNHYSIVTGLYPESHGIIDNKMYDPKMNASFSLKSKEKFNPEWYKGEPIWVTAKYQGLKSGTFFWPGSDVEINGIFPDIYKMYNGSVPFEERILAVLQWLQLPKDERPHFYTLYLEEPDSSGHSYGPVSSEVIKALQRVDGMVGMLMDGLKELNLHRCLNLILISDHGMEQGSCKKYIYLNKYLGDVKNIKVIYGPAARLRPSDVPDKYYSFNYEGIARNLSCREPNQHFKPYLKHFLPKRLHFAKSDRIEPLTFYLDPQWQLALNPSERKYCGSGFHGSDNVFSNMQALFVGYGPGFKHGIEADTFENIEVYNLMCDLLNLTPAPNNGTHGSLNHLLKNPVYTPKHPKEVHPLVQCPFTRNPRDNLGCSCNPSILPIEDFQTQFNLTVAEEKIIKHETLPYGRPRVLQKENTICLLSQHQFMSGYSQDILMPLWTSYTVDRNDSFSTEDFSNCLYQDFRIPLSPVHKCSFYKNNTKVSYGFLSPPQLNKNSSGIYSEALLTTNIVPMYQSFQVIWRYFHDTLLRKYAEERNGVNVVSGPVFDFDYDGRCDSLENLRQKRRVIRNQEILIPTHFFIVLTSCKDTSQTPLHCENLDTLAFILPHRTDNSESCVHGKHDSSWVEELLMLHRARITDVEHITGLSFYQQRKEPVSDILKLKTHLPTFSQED
Procedure: ENPP1 catalyses the hydrolysis of ATP into AMP+PPi. AMP production was monitored using Bellbrooks Transcreener AMP/GMP TR-FRET assay kit (Cat No. 3020-10K) according to the manufacturer's instructions. The assay was run with 50 mM Tris pH 7.5, 5 mM MgCl2, 150 mM NaCl, 0.005% Tween20 and distilled H2O. Antibody and tracer were diluted to 2 nM. […] Mouse ENPP1 was run at 15 pM with ATP at 400 nM. AMP produced in the assay by ENPP1 activity competes with a far-red tracer labelled AMP bound to an AMP specific antibody resulting in a decrease in TR-FRET. ENPP1 inhibition reduces AMP production and increases the TR-FRET signal.

First: CC(C)c1cn(Cc2ccc(S(=N)(=O)C(F)F)cc2)c2nc(C3CC3)nn2c1=O (single isomer, unassigned) [Compound 50]
Second: CC(C)c1cn(Cc2ccc([S@@](=N)(=O)C(C)C)cc2)c2nc(C3CC3)nn2c1=O (single isomer, unassigned) [Compound 68]
The pEC50 of the first is 0.70 log units lower: 7.50 for the first, 8.20 for the second.

Going from `Cc1cc([S@@](C)(=N)=O)ccc1Cn1cc(C(C)C)c(=O)n2nc(C3CC3)cc12` (single isomer, unassigned) [Compound 66] to `CC(C)c1cn(Cc2ccc(S(C)(=N)=O)c(C(F)(F)F)c2)c2cc(C3CC3)nn2c1=O` (centres unmarked) [Compound 20, 2-cyclopropyl-6-isopropyl-4-(4-(S-methylsulfonimidoyl)-3-(trifluoromethyl)benzyl) pyrazolo[1,5-a]pyrimidin-7(4H)-one], the pEC50 falls from 8.90 to 8.20 (0.70 log units). The first is the more potent here.

Going from `Cc1nc2n(C[C@H]3C[C@H]4C[C@@H]3CN4S(N)(=O)=O)cc(-c3cccnc3)c(=O)n2n1` [Compound 2, (1S,4S,5S)-5-((2-methyl-7-oxo-6-(pyridin-3-yl)-[1,2,4]triazolo[1,5-a]pyrimidin-4(7H)-yl)methyl)-2-azabicyclo[2.2.1]heptane-2-sulfonamide] to `CC(C)c1cn(C[C@H]2C[C@H]3C[C@@H]2CN3S(N)(=O)=O)c2nc(Cl)nn2c1=O` [Compound 34, (1S,4S,5S)-5-((2-chloro-6-isopropyl-7-oxo-[1,2,4]triazolo[1,5-a]pyrimidin-4(7H)-yl)methyl)-2-azabicyclo[2.2.1]heptane-2-sulfonamide], the pEC50 rises from 6.60 to 7.80 (1.20 log units). The second is the more potent here.

`CC(C)c1cn(Cc2ccc(S(C)(=N)=O)cc2)c2nc(OC3CC3)nn2c1=O` (centres unmarked) [Compound 25, 2-cyclopropoxy-6-isopropyl-4-(4-(S-methylsulfonimidoyl)benzyl)-[1,2,4]triazolo[1,5-a]pyrimidin-7(4H)-one] and `COCc1nc2n(Cc3ccc(S(C)(=N)=O)cc3)cc(C(C)C)c(=O)n2n1` (centres unmarked) [Compound 33, 6-isopropyl-2-(methoxymethyl)-4-(4-(S-methylsulfonimidoyl)benzyl)-[1,2,4]triazolo[1,5-a]pyrimidin-7(4H)-one] are within 0.2 log units of each other in pEC50: 8.20 for the first, 8.10 for the second.

First: CC(C)c1cn(C[C@H]2C[C@H]3C[C@@H]2CN3S(N)(=O)=O)c2c(C#N)c(C3CC3)nn2c1=O [Compound 45, (1S,4S,5S)-5-((3-Cyano-2-cyclopropyl-6-isopropyl-7-oxopyrazolo[1,5-a]pyrimidin-4(7H)-yl)methyl)-2-azabicyclo[2.2.1]heptane-2-sulfonamide]
Second: CC(C)c1cn(Cc2ccc(S(C)(=N)=O)c(F)c2)c2nc(C3CC3)nn2c1=O (centres unmarked) [Compound 63, 2-Cyclopropyl-4-(3-fluoro-4-(S-methylsulfonimidoyl)benzyl)-6-isopropyl-[1,2,4]triazolo[1,5-a]pyrimidin-7(4H)-one]
The pEC50 of the first is 0.20 log units higher: 8.20 for the first, 8.00 for the second.

Going from `CC(C)c1cn(Cc2ccc3c(c2)CCS3(=N)=O)c2nc(C3CC3)nn2c1=O` (centres unmarked) [Compound 48, 2-Cyclopropyl-4-((1-imino-1-oxido-2,3-dihydro-1H-1l4-benzo[b]thiophen-5-yl)methyl)-6-isopropyl-[1,2,4]triazolo[1,5-a]pyrimidin-7(4H)-one] to `CC(C)c1cn(Cc2ccc3c(c2)OCCS3(=N)=O)c2nc(C3CC3)nn2c1=O` (centres unmarked) [Compound 53, 2-Cyclopropyl-4-((4-imino-4-oxido-3,4-dihydro-2H-4lambda4-benzo[b][1,4]oxathiin-7-yl)methyl)-6-isopropyl-[1,2,4]triazolo[1,5-a]pyrimidin-7(4H)-one], the pEC50 falls from 7.50 to 7.00 (0.50 log units).

Going from `Cc1nc2n(Cc3ccc4c(c3)CCCS4(=N)=O)cc(C(C)C)c(=O)n2n1` (centres unmarked) [Compound 52, 4-((1-Imino-1-oxido-1/4-thiochroman-6-yl)methyl)-6-isopropyl-2-methyl-[1,2,4]triazolo[1,5-a]pyrimidin-7(4H)-one] to `CC(C)c1cn(Cc2ccc(S(=N)(=O)C(C)C)cc2)c2nc(C3CC3)nn2c1=O` (centres unmarked) [Compound 64, 2-Cyclopropyl-6-isopropyl-4-(4-(propan-2-ylsulfonimidoyl)benzyl)-[1,2,4]triazolo[1,5-a]pyrimidin-7(4H)-one], the pEC50 rises from 6.90 to 8.10 (1.20 log units).

— patent US20260001886A1, “ENPP1 INHIBITORS I” (RE Ventures I, LLC, priority 2024, published 2026)
